Assays:
steroid sulphatase = biological target: T1, steroid sulphatase (Homo sapiens, UniProt P08842); details: R. P. Boivin et al., J. Med. Chem. 2000; cited from earlier work
T1 sequence (P08842 22-583): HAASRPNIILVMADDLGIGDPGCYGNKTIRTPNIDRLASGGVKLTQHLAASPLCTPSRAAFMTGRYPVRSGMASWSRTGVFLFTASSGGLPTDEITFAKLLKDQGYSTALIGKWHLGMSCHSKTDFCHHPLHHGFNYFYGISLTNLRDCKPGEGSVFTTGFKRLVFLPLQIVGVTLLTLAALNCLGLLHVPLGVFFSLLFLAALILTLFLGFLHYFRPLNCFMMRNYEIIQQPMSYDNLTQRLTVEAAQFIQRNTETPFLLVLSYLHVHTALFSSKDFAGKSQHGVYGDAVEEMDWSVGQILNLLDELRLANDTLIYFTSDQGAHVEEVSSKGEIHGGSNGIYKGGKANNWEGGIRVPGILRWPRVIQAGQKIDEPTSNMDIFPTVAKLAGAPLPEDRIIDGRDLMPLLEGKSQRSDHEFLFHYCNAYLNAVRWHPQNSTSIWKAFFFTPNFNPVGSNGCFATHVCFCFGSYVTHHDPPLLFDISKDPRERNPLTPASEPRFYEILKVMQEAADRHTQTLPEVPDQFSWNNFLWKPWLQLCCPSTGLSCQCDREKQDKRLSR

sun-damaged skin = details: hairless mice; Gendimenico et al. 2002; cited from earlier work
estrogen receptor = test: Activity on the estrogen receptor in ERE-luc mice, photometric analysis with CCD camera; type: in vivo
Procedure: (§1) The activity of two compounds of the invention, 17α-(5-acetoxy)pent-1-inyl-1,3,5(10)-estratriene-3,17β-diol and 17α-(5-propanoyl-oxy)pent-1-inyl-1,3,5(10)-estratriene-3,170-diol, was determined in a cell culture and in a transgenic animal model using female adult ERE-luc mice which were ovariectomised or sham-operated three weeks before the experiment. This model allows the anti-inflammatory activity, effect on the estrogen receptor and wound-healing activity to be evaluated.
(§2) Each of the two test compounds was dissolved immediately before use in 99% ethanol, and a 10 mM mother solution was prepared. The successive dilutions were performed in saline solution (0.9% NaCl in bidistilled water).
The activity on the estrogen receptor was evaluated by photometric analysis with CCD chamber after 0, 24, 48 and 72 hours. The animals were then killed, and the tissue surrounding the wound was removed.

MIF = test: Expression of inflammation markers in the wound model (second study): MIF; type: in vivo, mice
ERα = test: Expression of estrogen receptors in ovariectomised animals: ERα-positive cells; type: in vivo, mice
cutaneous wound = test: Wound-healing activity: histological sections of the tissue surrounding the wound; type: in vivo, mice
Procedure: as §1, §2
Histological sections were prepared from the tissue surrounding the wound to evaluate the wound-healing activity. For the histological preparation, the tissue was fixed in 10% formalin (in buffer solution) and embedded in paraffin wax. The sections were stained with haematoxylin-eosin to evaluate the state of inflammation and wound-healing. The sections were also used to quantify the state of infiltration of the macrophages 4 days after the wound, using anti-Mac2 antibodies, and for further staining designed to detect the state of wound-healing and characterise the cells present in the wound area.

TGF-β = test: Expression of inflammation markers in the wound model (second study): TGF-β; type: in vivo, mice
ERβ = test: Expression of estrogen receptors in ovariectomised animals: ERβ-positive cells; type: in vivo, mice
CD74 = test: Expression of inflammation markers in the wound model (second study): CD74; type: in vivo, mice
wound = details: cited from earlier work; for wound-healing on topical use: used topically, Ashcroft et al. 2003b
IL-6 = test: Expression of inflammation markers in the wound model (second study): IL-6; type: in vivo, mice

For `C[C@]12CC[C@@H]3c4ccc(O)cc4CC[C@H]3[C@@H]1CC[C@@]2(O)C#CCBr` [17α-(3-bromopropin-1-yl)estradiol], the “inhibitory effect on steroid sulphatase” value (steroid sulphatase) is listed as “high”.

For `C[C@]12CC[C@@H]3c4ccc(O)cc4CC[C@H]3[C@@H]1CC[C@H]2O` [17α-estradiol], the “repair of sun-damaged skin” value (sun-damaged skin) is listed as “repair the sun-damaged skin of hairless mice”.

In the case of `CCC(=O)OCCCC#CC1(O)CCC2C3CCc4cc(O)ccc4C3CCC21C` (stereo not drawn) [Example 8, 17α-(5-Propanoyloxy)pent-1-ynyl-1,3,5(10)-estratrien-3,17β-diol], the “estrogenic effect in areas other than the area of administration (systemic activity)” value (estrogen receptor; CCD camera, intradermal in loco) is reported as “a slight systemic activity”.

With `CC(=O)OCCCC#C[C@]1(O)CC[C@H]2[C@@H]3CCc4cc(O)ccc4[C@H]3CC[C@@]21C` [Example 7, 17α-(5-acetoxy)pent-1-ynyl-1,3,5(10)-estratrien-3,17β-diol] the “expression of MIF” value (MIF) was “significantly inhibited the expression”, the “number of cells that test positive for the α estrogen receptor” value (ERα) was “does not act on the number of cells that test positive for the α receptor” and the “estrogenic effect in areas other than the area of administration (systemic activity)” value (estrogen receptor; mouse, in vivo) was “does not have a detectable estrogenic effect”. The uterotrophic activity (estrogen receptor; mouse, in vivo) was “does not present uterotrophic activity”, the “efficacy of the wound-healing effect” value (cutaneous wound; second study, 5 animals per group, compared with estradiol) was “statistically similar to that of the natural hormone” and the “effect on the wound-healing process” value (cutaneous wound; summary statement) was “marked effect on the wound-healing process”. The “expression of TGF-β” value (TGF-β) was “significantly inhibited the expression”, the “number of cells that express the β estrogen receptor” value (ERβ) was “does not significantly reduce the number of cells that express the β receptor” and the “expression of CD74” value (CD74) was “significantly inhibited the expression”.

For `CC12CCC3c4ccc(O)cc4CCC3C1CCC2(O)C#CCO` (stereo not drawn) [17α-(3-hydroxypropin-1-yl)estradiol], the “inhibitory effect on steroid sulphatase” value (steroid sulphatase) is given as “very low”.

In the case of `C[C@]12CC[C@@H]3c4ccc(O)cc4CC[C@H]3[C@@H]1C[C@@H](O)[C@@H]2O` [estriol], the “activity relative to estradiol” value (wound; Shah et al. 2001) is listed as “much less active than estradiol” and the “wound-healing on topical use” value (wound) is listed as “promote wound-healing”.

In the case of `C[C@]12CC[C@@H]3c4ccc(O)cc4CC[C@H]3[C@@H]1CC[C@@H]2O` [estradiol, 17beta-estradiol], the “expression of MIF” value (MIF) is listed as “limit the expression of all the inflammation proteins studied”, the “expression of IL-6” value (IL-6) is listed as “limit the expression of all the inflammation proteins studied” and the “repair of sun-damaged skin” value (sun-damaged skin) is listed as “repair the sun-damaged skin of hairless mice”. For the same molecule, the “expression of TGF-β” value (TGF-β) was “limit the expression of all the inflammation proteins studied”, the “wound-healing on topical use” value (wound) was “promote wound-healing” and the “number of cells that express the β estrogen receptor” value (ERβ) was “increases the number of cells that test positive for both receptors”. For the same molecule, the “expression of CD74” value (CD74) was “limit the expression of all the inflammation proteins studied”.
